Where a name gives a salt, the structure may show the parent alone.
How the values were obtained:
5HT4 receptor = 5HT4 receptor (Homo sapiens, UniProt Q13639); settings: from the cited literature; cited from earlier work
[1] = Particle size (DV 90/50/10) of batches of SB-207266-A made by the Description 1 process; type: physicochemical; settings: for DV 10 / DV 50 / DV 90: individual batch, hydrochloride; for DV 10: 10% by volume of the material is less than this size; for DV 50: 50% by volume of the material is less than this size; for DV 90: 90% by volume of the material is less than this size
Text: The first aspect of the newly recognised problem is that such processes produce the SB 207266 hydrochloride salt in the form of particles of extremely small particle size.
DV 90, DV 50 and DV 10 respectively mean that 90%, 50% and 10% by volume of the material is less than the micron size specified.

[2] = Bulk density of the small-particle size HCl salt; type: physicochemical; settings: densifies on addition of water
Text: The fourth aspect of the newly recognised problem is that the small-particle size SB-207266 HCl salt has a low bulk density, densifying on the addition of water. This means that less material can be added to a mixer of fixed volume, leading to a less efficient manufacturing process as large volumes of equipment have to be used for relatively small volumes of drug (smaller throughput in plant).

[3] = Cohesiveness and flowability of drug substance and granules; type: physicochemical; settings: HCl salt crystallised from ethanol/IMS with C5-C10 hydrocarbon
Text: The second aspect of the newly recognised problem, is the discovery that the SB 207266 HCl salt produced by these processes is very cohesive and has poor flowability/flow characteristics.

5HT4 receptor, sequence (Q13639 whole entry): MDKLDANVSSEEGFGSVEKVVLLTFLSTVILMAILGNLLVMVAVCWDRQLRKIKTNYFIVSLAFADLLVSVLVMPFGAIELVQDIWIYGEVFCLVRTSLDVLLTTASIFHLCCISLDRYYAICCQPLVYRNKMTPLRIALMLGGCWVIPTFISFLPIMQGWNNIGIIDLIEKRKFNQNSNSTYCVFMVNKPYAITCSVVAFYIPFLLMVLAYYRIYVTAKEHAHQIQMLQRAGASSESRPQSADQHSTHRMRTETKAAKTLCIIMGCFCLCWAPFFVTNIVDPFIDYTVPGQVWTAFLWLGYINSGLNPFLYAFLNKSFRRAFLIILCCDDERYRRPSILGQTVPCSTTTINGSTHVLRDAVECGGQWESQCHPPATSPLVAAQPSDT

SMILES: CCCCN1CCC(CNC(=O)c2c3n(c4ccccc24)CCCO3)CC1 [SB 207266, N-[(1-^nbutyl-4-piperidinyl)methyl]-3,4-dihydro-2H-[1,3]oxazino[3,2-a]indole-10-carboxamide]
- selectivity for the 5HT4 receptor over other 5HT receptors (5HT4 receptor): highly selective

SMILES: CCCCN1CCC(CNC(=O)c2c3n(c4ccccc24)CCCO3)CC1 [SB-207266-A, N-[(1-butyl-4-piperidinyl)methyl]-3,4-dihydro-2H-[1,3]-oxazino[3,2-α]indole-10-carboxamide hydrochloride]
- DV 10, average of batches ([1]; average of the five batches): 1.5 μm
- DV 50, average of batches ([1]; average of the five batches): 5.8 μm
- DV 90, average of batches ([1]; average of the five batches): 14.4 μm
- DV 10 ([1]; listed as BDC-G-02C): 1.5 μm
- DV 10 ([1]; listed as BDC-G-03C): 1.8 μm
- DV 10 ([1]; listed as BDC-G-04C): 1.4 μm
- DV 10 ([1]; listed as BDC-G-05C): 1.5 μm
- DV 10 ([1]; listed as BDC-H-01C): 1.4 μm
- DV 50 ([1]; listed as BDC-G-02C): 5.7 μm
- DV 50 ([1]; listed as BDC-G-03C): 6.8 μm
- DV 50 ([1]; listed as BDC-G-04C): 5.3 μm
- DV 50 ([1]; listed as BDC-G-05C): 5.8 μm
- DV 50 ([1]; listed as BDC-H-01C): 5.3 μm
- DV 90 ([1]; listed as BDC-G-02C): 13.8 μm
- DV 90 ([1]; listed as BDC-G-03C): 16.4 μm
- DV 90 ([1]; listed as BDC-G-04C): 14.4 μm
- DV 90 ([1]; listed as BDC-G-05C): 14.6 μm
- DV 90 ([1]; listed as BDC-H-01C): 12.8 μm
- bulk density [2]: low
- cohesiveness [3]: very cohesive
- flowability/flow characteristics [3]: poor
